Patent US6855730B2, “3-methylidenyl-2-indolinone modulators of protein kinase” (Sugen, Inc., priority 1998, dated 2005)
Where a name gives a salt, the structure may show the parent alone.

Molecular target: T1, chimeric receptor containing the EGFR extracellular domain and intracellular HER2 kinase domain (Homo sapiens, UniProt P04626)
T1 construct: fused on or other part: EGFR ectodomain + HER2 intracellular part, ATP-site indolinones: HER2's kinase
Test: EGF Receptor-HER2 chimeric receptor assay in whole cells (ELISA)
Type: cell-based
Settings: read-out: HER-2 kinase IC50
Procedure, shortened: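 NIH3T3 cells overexpressing EGFR-extracellular/HER2-kinase chimera, seeded in 0.5% serum for ~40 h, were pretreated with compound (1% final DMSO) 2 h at 37 °C, then stimulated with 100 nM EGF for 5 min. Lysates captured on anti-EGFR plates; phosphotyrosine detected by anti-Ptyr/HRP ELISA at 410 nm as percent inhibition.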

T1 sequence (P04626 720-1255 limits assumed, change not shown): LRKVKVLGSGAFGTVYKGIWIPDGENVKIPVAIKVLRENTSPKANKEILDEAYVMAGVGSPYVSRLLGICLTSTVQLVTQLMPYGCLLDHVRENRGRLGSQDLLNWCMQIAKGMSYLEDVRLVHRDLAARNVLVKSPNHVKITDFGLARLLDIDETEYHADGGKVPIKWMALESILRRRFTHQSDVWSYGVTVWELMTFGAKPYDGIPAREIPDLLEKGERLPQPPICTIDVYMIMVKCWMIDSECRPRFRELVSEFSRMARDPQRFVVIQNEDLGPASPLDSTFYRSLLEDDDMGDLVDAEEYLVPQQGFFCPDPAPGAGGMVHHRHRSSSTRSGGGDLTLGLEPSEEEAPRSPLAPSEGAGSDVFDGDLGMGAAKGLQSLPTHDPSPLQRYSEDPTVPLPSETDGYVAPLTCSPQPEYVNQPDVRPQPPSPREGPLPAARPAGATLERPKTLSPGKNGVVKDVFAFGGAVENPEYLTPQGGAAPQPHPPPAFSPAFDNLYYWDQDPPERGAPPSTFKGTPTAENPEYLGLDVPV

Structure (SMILES) | IC50
COc1ccccc1-c1ccc2c(c1)NC(=O)/C2=C\c1[nH]c(C)cc1CCC(=O)O [Example 109, 3-{2-[6-(2-Methoxyphenyl)-2-oxo-1,2-dihydroindol-3-ylidenemethyl]-5-methyl-1H-pyrrol-3-yl}-propionic acid] | > 100 µM
CCOC(=O)c1c(C)[nH]c(/C=C2\C(=O)Nc3cc(-c4ccccc4OC)ccc32)c1CCC(=O)O [Example 110, 4-(2-Carboxyethyl)-5-[6-(2-methoxyphenyl)-2-oxo-1,2-dihydro-indol-3-ylidenemethyl]-2-methyl-1H-pyrrol-3-yl-carboxylic acid ethyl ester] | > 100 µM
Cc1cc(CCC(=O)O)c(/C=C2\C(=O)Nc3ccc(Cl)cc32)[nH]1 [Example 111, 3-[2-(5-Chloro-2-oxo-1,2-dihydroindol-3-ylidenemethyl)-5-methyl-1H-pyrrol-3-yl]propionic acid] | > 100 µM
Cc1c(/C=C2\C(=O)Nc3ccc(C(=O)O)cc32)[nH]c2ccccc12 [Example 156, 3-(3-Methyl-1H-indol-2-ylmethylene)-2-oxo-2,3-dihydro-1H-indole-5-carboxylic acid (piperidine salt)] | > 100 µM
O=C1Nc2ccc(Br)cc2/C1=C/c1cc2ccccc2[nH]1 [Example 165, 5-Bromo-3-(1H-indol-2-ylmethylene)-1,3-dihydro-indol-2-one] | > 100 µM
Cc1cccc2c1/C(=C/c1cc3ccccc3[nH]1)C(=O)N2 [Example 166, 3-(1H-indol-2-ylmethylene)-4-methyl-1,3-dihydro-indol-2-one] | > 100 µM
